From US20250129055A1, “GLUCOSIDE DERIVATIVE, AND PREPARATION METHOD THEREFOR AND APPLICATION THEREOF” (BEIJING INCREASE INNOVATIVE DRUG CO., LTD., priority 2020, published 2025)
Like-named read-outs stand apart in the source and are kept apart here. Marks after values point to notes of the source that are not given here.

Columns and labels:
[1] = system: spontaneous type 2 diabetes mellitus db/db mice; experiment: Pharmacodynamic effect on spontaneous type 2 diabetes mellitus db/db mice; type: in vivo
Method: Test example 4 Pharmacodynamic effect of the compounds of the present invention on spontaneous type 2 diabetes mellitus db/db mice
Spontaneous type 2 diabetes mellitus db/db mice and the normal control db/m mice (male, 5-6 weeks old) were used. The db/db mice were randomly divide into […] based on random blood glucose, fasting blood glucose, percentage of blood glucose reduction at 40 min, blood triglycerides, total blood cholesterol, and body weight, which were model group (con), positive control group and three groups of test compound with different doses (n=10).
Mice were administered with drugs by gavage.
The mice were fasted for 2 h, and then the 0 h (fasting) blood samples were collected. Then the mice in each group were administered with drugs by gavage, and blood samples were collected at 1 h, 2 h, 4 h, 6 h, 8 h and 24 h after administration. The blood glucose level was measured using glucose oxidase-peroxidase method, and the area under the blood glucose curve was calculated. Moreover, urine samples were collected 2 h and 4 h after administration to determine the concentration of urine glucose.
On the 15th day of continuous administration, before the mice were fasted, blood samples were collected to measure the random blood glucose. Then the mice were fasted and administered with the compounds, and after 2 h, blood samples were collected to measure the fasting blood glucose. […]
The data were expressed as mean±SEM (n=10). The comparison between multiple groups was performed by one-way analysis of variance, and the comparison between two groups was performed by Dunnett's t test. Statistical graphing was performed using Graphpad Prism software.

mice = conditions: 3000 mg/kg once by gavage; for Death rate (%): 7 days; for Deaths D 1: day 1; for Deaths D 2: day 2; for Deaths D 3: day 3; for Deaths D 4: day 4; for Deaths D 5: day 5; for Deaths D 6: day 6; for Deaths D 7: day 7
Method: Test Example 5 Research on Safety of the Compounds of the Present Invention
The compounds of the present invention were subjected to the following acute toxicity studies in mice.
The symptoms of toxicity reaction and death time were recorded.
On the day before administration, the animals were fasted but provided with water for 17 h. Each test drug group was administered with the corresponding test drug once by gavage, and the blank control group was administered with the same dose of vehicle once by gavage.

normal ICR mice = experiment: Blood glucose level of normal mice after oral administration of glucose; type: in vivo
Method: Test Example 2 Evaluation of the in vivo activity of the compounds of the present invention: the effect on the blood glucose level of normal mice after oral administration of glucose
ICR mice (male, 18-20 g), purchased from Beijing Vital River Laboratories Co., Ltd., were fed adaptively for 4 days, and randomly divided into 4 groups, namely normal control group, positive control group, and two groups of test compounds, with 8 mice in each group.
The aforementioned stock solutions were diluted to appropriate concentrations with double distilled water.
The mice were fasted overnight. […] After 1 h, blood was collected at 0 min (fasting), and then mice in each group were administered with glucose (2.0 g/kg) solution by gavage. Blood was collected at 30 min, 60 min, and 120 min after glucose administration. The blood glucose level was measured using glucose oxidase-peroxidase method, and the area under the blood glucose curve was calculated.
The data were expressed as mean±SD. The comparison between multiple groups was performed by one-way analysis of variance, and the comparison between two groups was performed by Dunnett's t test. Statistical graphing was performed using Graphpad Prism software.

CCOc1ccc(Cc2cc([C@@H]3O[C@H](CO)[C@@H](O)[C@H](O)[C@H]3O)ccc2Cl)cc1 [Dapagliflozin, reference compound]
AUC of blood glucose ([1]; 2.0 mg/kg single administration, 0-24 h): 8866 ± 361.1***^ mg/dl · h
Concentration of blood glucose 0 h ([1]; 2.0 mg/kg single administration, fasting, 0 h before administration): 488.5 ± 29.2 mg/dL
Concentration of blood glucose 1 h ([1]; 2.0 mg/kg single administration, fasting, 1 h): 386.4 ± 16.5 mg/dL
Concentration of blood glucose 2 h ([1]; 2.0 mg/kg single administration, fasting, 2 h): 333.8 ± 13.9 mg/dL
Concentration of blood glucose 4 h ([1]; 2.0 mg/kg single administration, fasting, 4 h): 265.8 ± 9.1 mg/dL
Concentration of blood glucose 6 h ([1]; 2.0 mg/kg single administration, fasting, 6 h): 209.3 ± 8.0 ^ mg/dl
Concentration of blood glucose 8 h ([1]; 2.0 mg/kg single administration, fasting, 8 h): 176.7 ± 10.2 mg/dL
Concentration of blood glucose 24 h ([1]; 2.0 mg/kg single administration, fasting, 24 h): 649.4 ± 40.0 mg/dL
Fasting blood glucose, the 15th day ([1]; 2.0 mg/kg, 15th day): 183.0 ± 11.2 mg/dL
Random blood glucose, the 15th day ([1]; 2.0 mg/kg, 15th day): 344.7 ± 24.1 mg/dL
Fasting blood glucose, the 22nd day ([1]; 2.0 mg/kg, 22nd day): 191.8 ± 11.0 mg/dL
HbA1c ([1]; 2.0 mg/kg, 28th day): 5.1 ± 0.3 %
Random blood glucose, the 22nd day (title: 28th day) ([1]; 2.0 mg/kg, column head 22nd day, title 28th day): 317.0 ± 16.4 mg/dL
Death rate (%) (mice; female): 0%
Deaths D 1 (mice; female): 0
Deaths D 2 (mice; female): 0
Deaths D 3 (mice; female): 0
Deaths D 4 (mice; female): 0
Deaths D 5 (mice; female): 0
Deaths D 6 (mice; female): 0
Deaths D 7 (mice; female): 0
Death rate (%) (mice; male): 80%
Deaths D 1 (mice; male): 0
Deaths D 2 (mice; male): 0
Deaths D 3 (mice; male): 1
Deaths D 4 (mice; male): 1
Deaths D 5 (mice; male): 0
Deaths D 6 (mice; male): 2
Deaths D 7 (mice; male): 0
Blood glucose 0 min (normal ICR mice; 2 mg/kg by gavage, 0 min (fasting, 1 h after dosing)): 71.8 ± 6.6 mg/dL
Blood glucose 30 min (normal ICR mice; 2 mg/kg by gavage, 30 min after glucose 2.0 g/kg): 213.2 ± 26.6 mg/dL
Blood glucose 60 min (normal ICR mice; 2 mg/kg by gavage, 60 min after glucose 2.0 g/kg): 122.2 ± 16.1 mg/dL
Blood glucose 120 min (normal ICR mice; 2 mg/kg by gavage, 120 min after glucose 2.0 g/kg): 83.0 ± 13.5 mg/dL
AUC of blood glucose (normal ICR mice; 2 mg/kg by gavage, oral glucose 2.0 g/kg): 257.7 ± 24.0 mg·h/dL
Reduction of the area under the curve (AUC) of blood glucose (normal ICR mice; 2 mg/kg, vs. normal control group): 35.2%
